Results as given in patent US20100269215A1 (SNU R&DB Foundation, priority 2006, published 2010).

Assays:
TflA protein = experiment: Degradation of toxoflavin and its derivatives by TflA protein (TLC enzyme analysis); type: biochemical, Paenibacillus polymyxa JH2; details: within given time; see FIG. 8
Procedure: 5 μM TflA protein, 10 μM MnCl2 and 5 mM DTT (dithiothreitol) were added to analysis buffer (50 mM sodium phosphate (pH 6.5)) to give 200 μl mixture and the reaction was carried out at 25 °C. […] After 10 min of the reaction, 200 μl of chloroform was added to stop the reaction. The chloroform layer was dried completely, then 10 μl of 100% methanol was added. An aliquot taken from the reaction mixture comprising methanol was applied on a TLC plate using pipette. The resulting plate was placed in TLC chamber containing mixed solvents of chloroform and methanol (95:5, V:V) at room temperature. TLC was visualized under UV illuminator (254 nm and 365 nm).

leaves of wild rice = experiment: Toxoflavin treatment of cut rice leaves, wild type; details: toxoflavin 0, 25, 50 or 100 μM, under light; 40 hrs after the treatment
Procedure: (§1) Thus, the experiment of the present invention was carried out under light.

[1] = system: leaves of the transgenic plants to which tflA gene has been introduced; experiment: Toxoflavin treatment of cut rice leaves, transgenic T3 plants; details: toxoflavin 0, 25, 50 or 100 μM, under light, 48 hrs
Procedure: as §1

[2] = system: rice callus transformed with pCamLA vector; experiment: Selection with toxoflavin of rice callus transformed with pCamLA; type: cell-based
[3] = system: rice callus transformed with pTflA vector; experiment: Selection with toxoflavin of rice callus transformed with pTflA; type: cell-based
[4] = system: non-transgenic organisms (Arabidopsis Col-0); experiment: Seeds on MS plate containing toxoflavin, non-transgenic organisms; type: in vivo, Arabidopsis thaliana; details: media comprising 20 uM toxoflavin; ten days
[5] = system: transgenic plants to which the toxoflavin-resistant gene has been incorporated; experiment: Seeds on MS plate containing toxoflavin, transgenic plants; type: in vivo, Arabidopsis thaliana; details: media comprising 20 uM toxoflavin; ten days
Procedure: Detailed method for the transformation is described below. • 1. […] 0.03% silwet was added to the suspension. • 4. […] The plants were wrapped with a plastic bag. Bags were removed two days later.
Roots were also growing well.

[6] = system: wild rice leaves (Dongjinbyeo wild-type plant); experiment: Toxoflavin treatment of leaf pieces, wild-type rice; type: in vivo; details: 0, 25, 50 or 100 μM toxoflavin, 48 hrs, under light; seen 40 hrs after treatment
Procedure: as §1

[7] = system: leaves of transgenic T3 rice plant with tflA gene; experiment: Toxoflavin treatment of leaf pieces, transgenic T3 rice plant expressing tflA; type: in vivo; details: 0, 25, 50 or 100 μM toxoflavin, 48 hrs, under light
Procedure: as §1

[8] = system: rice callus transformed with pCamLA vector; experiment: Survival of rice callus under selection with toxoflavin, pCamLA; type: cell-based
[9] = system: rice callus transformed with pTflA vector; experiment: Survival of rice callus under selection with toxoflavin, pTflA; type: cell-based
[10] = system: Arabidopsis Col-0, non-transgenic organisms; experiment: Germination and growth on toxoflavin medium, non-transgenic Arabidopsis; type: in vivo, Arabidopsis thaliana; details: 20 uM toxoflavin
[11] = system: Arabidopsis Col-0, non-transgenic organisms; experiment: Photo-bleaching test, non-transgenic Arabidopsis; type: in vivo, Arabidopsis thaliana
Source text: (§2) Such results correspond to the result of PCR described above.

Arabidopsis Col-0 = experiment: Photo-bleaching test, non-transgenic Arabidopsis; type: in vivo, Arabidopsis thaliana
Source text: as §2

[12] = system: Arabidopsis Col-0, transgenic organisms with tflA; experiment: Photo-bleaching test, transgenic Arabidopsis; type: in vivo, Arabidopsis thaliana; details: FIG. 24
Source text: as §2

transgenic organisms = experiment: Photo-bleaching test, transgenic Arabidopsis; type: in vivo, Arabidopsis thaliana; details: transgenic organisms selected for the test; FIG. 24
Source text: as §2

[13] = system: Cn1ncnc2c(=O)n(C)c(=O)nc1-2; experiment: purified protein, by the assay type; details: other: toxoflavin 80-200 μM, 50 mM sodium phosphate pH 6.5, MnCl2 and DTT, Lineweaver-Burk plot
Procedure: Each of experimental points is a mean value that is calculated from data obtained from at least of three measurements.

[14] = toxoflavin 5 ug/ml, selection before redifferentiation, FIG. 18
[15] = toxoflavin 5 ug/ml, before redifferentiation
[16] = toxoflavin 7.5 ug/ml, four weeks after placement on redifferentiation medium
[17] = various concentrations, even at low concentration

4,8-dihydrotoxoflavin
degradation by TflA protein (TflA protein): completely degraded

CC1=NN(C)c2[nH]c(=O)n(C)c(=O)c2N1 [3-methyl 4,8-dihydrotoxoflavin]
degradation by TflA protein (TflA protein): partially degraded

Cc1n[nH]c2nc(=O)n(C)c(=O)c-2n1 [3-methylreumycin]
degradation by TflA protein (TflA protein): completely degraded

Cc1nc2c(=O)n(C)c(=O)nc-2n(C)n1 [3-methyltoxoflavin]
degradation by TflA protein (TflA protein): completely degraded

Cn1c(=O)nc2[nH]nc(-c3ccccc3)nc-2c1=O [3-phenylreumycin]
degradation by TflA protein (TflA protein): not degraded at all

Cn1nc(-c2ccccc2)nc2c(=O)n(C)c(=O)nc1-2 [3-phenyltoxoflavin]
degradation by TflA protein (TflA protein): not degraded at all

O=c1[nH]c(=O)c2cc3ccccc3nc2[nH]1 [5-deazaflavin]
degradation by TflA protein (TflA protein): not degraded at all

Cn1c(=O)c2ncnnc2n(C)c1=O [fervenulin]
degradation by TflA protein (TflA protein): partially degraded

Cn1c(=O)[nH]c2nncnc2c1=O [reumycin]
degradation by TflA protein (TflA protein): partially degraded

Cn1ncnc2c(=O)n(C)c(=O)nc1-2 [toxoflavin]
degradation by TflA protein (TflA protein): completely degraded
discoloration of leaves (leaves of wild rice): discoloration due to the toxin started to show up
discoloration of leaves [1]: no such discoloration was observed
survival of callus [2, 14]: most of the callus died out
survival of callus ([2]; toxoflavin 7.5 ug/ml, four weeks after placement on medium for redifferentiation, FIG. 19): most of the callus died out
survival of callus [3, 14]: only a part of the callus died out
survival of callus ([3]; toxoflavin 7.5 ug/ml, four weeks after placement on medium for redifferentiation, FIG. 20): the callus was redifferentiated normally
germination and root growth [4]: germination did not occur for most of the non-transgenic organisms
growth [5]: show normal growth
discoloration of leaves [6]: discoloration due to the toxin started to show up
discoloration of leaves [7]: no such discoloration was observed
survival of callus [8, 15]: most of the callus died out
survival of callus [8, 16]: most of the callus died out
survival of callus [9, 15]: only a part of the callus died out
survival of callus [9, 16]: the callus was redifferentiated normally
germination [10]: germination did not occur for most of the non-transgenic organisms
root growth where germination occurred [10]: root growth was not normal
photo-bleaching ([11]; bleaching test, FIG. 24): the bleaching occurred
bleaching effect [11, 17]: even at low concentration toxoflavin exerts a bleaching effect
photo-bleaching (Arabidopsis Col-0; non-transgenic organisms, FIG. 24): the bleaching occurred
bleaching effect on the plant (Arabidopsis Col-0; [17]): exerts a bleaching effect
photo-bleaching [12]: photo-bleaching was not observed
photo-bleaching (transgenic organisms): photo-bleaching was not observed

Paenibacillus polymyxa JH2 TflA protein, wild type, N-terminal His-tagged (His-TflA), SEQ ID NO: 2 (Paenibacillus polymyxa)
Km [13]: 69.72 µM
